Like-named read-outs stand apart in the source and are kept apart here.
Tests used:
[1] = molecular target: T1, human α1G T-type channels (Homo sapiens, UniProt O43497); assay: T-type calcium channel block, patch clamp in HEK cell lines; type: cell-based; settings: mainly non-inactivated protocol; HEK cells expressing human α1G; read-out: IC50 @ −80 mV
T1 construct: expressed in transfected cells

[2] = molecular target: T2, rat brain N-type calcium channel subunits (α1B+α2δ+β1b cDNA subunits) (Rattus norvegicus, UniProt Q02294); assay: N-type calcium channel block, whole cell patch clamp in HEK 293 cells; type: cell-based; settings: holding potential −80 mV to +10 mV
T2 construct: expressed in transfected cells; host or cells: HEK 293 (stably, alternatively transiently, transfected)
Experimental: A. Transformation of HEK Cells: • N-type calcium channel blocking activity was assayed in human embryonic kidney cells, HEK 293, stably transfected with the rat brain N-type calcium channel subunits (α1B+α2δ+β1b cDNA subunits). Alternatively, N-type calcium channels (α1B+α2δ+β1b cDNA subunits), L-type channels (α1C+α2δ+β1b cDNA subunits) and P/Q-type channels (α1A+α2δ+β1b cDNA subunits) were transiently expressed in HEK 293 cells. Briefly, cells were cultured in Dulbecco's modified eagle medium (DMEM) supplemented with 10% fetal bovine serum, 200 U/ml penicillin and 0.2 mg/ml streptomycin at 37° C. with 5% CO2. At 85% confluency cells were split with 0.25% trypsin/1 mM EDTA and plated at 10% confluency on glass coverslips. At 12 hours the medium was replaced and the cells transiently transfected using a standard calcium phosphate protocol and the appropriate calcium channel cDNA's. Fresh DMEM was supplied and the cells transferred to 28° C./5% CO2. Cells were incubated for 1 to 2 days prior to whole cell recording.
B. Measurement of Inhibition
Whole cell patch clamp experiments were performed using an Axopatch 200B amplifier (Axon Instruments, Burlingame, Calif.) linked to a personal computer equipped with pCLAMP software. The external and internal recording solutions contained, respectively, 5 mM BaCl2, 10 mM MgCl2, 10 mM HEPES, 40 mM TEACl, 10 mM glucose, 87.5 mM CsCl (pH 7.2) and 108 mM CsMS, 4 mM MgCl2, 9 mM EGTA, 9 mM HEPES (pH 7.2). Currents were typically elicited from a holding potential of −80 mV to +10 mV using Clampex software (Axon Instruments). Typically, currents were first elicited with low frequency stimulation (0.067 Hz) and allowed to stabilize prior to application of the compounds. The compounds were then applied during the low frequency pulse trains for two to three minutes to assess tonic block, and subsequently the pulse frequency was increased to 0.2 Hz to assess frequency dependent block. Data were analyzed using Clampfit (Axon Instruments) and SigmaPlot 4.0 (Jandel Scientific).

[3] = test system: tactile allodynia after L5/L6 spinal nerve ligation; assay: Spinal nerve ligation model of neuropathic pain, tactile allodynia (von Frey); type: in vivo, rat; settings: SNL rats; orally in propylene glycol solution, 300 mg/kg
From the text: Spinal nerve ligation (SNL) injury was induced using the procedure of Kim and Chung, (Kim, S. H., et al., Pain (1992) 50:355-363) in male Sprague-Dawley rats (Harlan; Indianapolis, Ind.) weighing 200 to 300 grams. Anesthesia was induced with 2% halothane in O2 at 2 L/min and maintained with 0.5% halothane in O2. After surgical preparation of the rats and exposure of the dorsal vertebral column from L4 to S2, the L5 and L6 spinal nerves were tightly ligated distal to the dorsal root ganglion using 4-0 silk suture. The incision was closed, and the animals were allowed to recover for 5 days. […] Sham control rats underwent the same operation and handling as the experimental animals, but without SNL. The assessment of tactile allodynia consisted of measuring the withdrawal threshold of the paw ipsilateral to the site of nerve injury in response to probing with a series of calibrated von Frey filaments. Each filament was applied perpendicularly to the plantar surface of the ligated paw of rats kept in suspended wire-mesh cages. Measurements were taken before and after administration of drug or vehicle. Withdrawal threshold was determined by sequentially increasing and decreasing the stimulus strength (“up and down” method), analyzed using a Dixon non-parametric test (Chaplan S. R., et al., J Pharmacol Exp Ther (1994) 269:1117-1123), and expressed as the mean withdrawal threshold.

[4] = test system: T-type over L-type channels; settings: cited from earlier work
[5] = low frequency stimulation 0.067 Hz (tonic block), read-out: IC50 @ 0.067 Hz
[6] = pulse frequency 0.2 Hz (frequency dependent block), read-out: IC50 @ 0.2 Hz

T1 sequence (O43497 whole entry): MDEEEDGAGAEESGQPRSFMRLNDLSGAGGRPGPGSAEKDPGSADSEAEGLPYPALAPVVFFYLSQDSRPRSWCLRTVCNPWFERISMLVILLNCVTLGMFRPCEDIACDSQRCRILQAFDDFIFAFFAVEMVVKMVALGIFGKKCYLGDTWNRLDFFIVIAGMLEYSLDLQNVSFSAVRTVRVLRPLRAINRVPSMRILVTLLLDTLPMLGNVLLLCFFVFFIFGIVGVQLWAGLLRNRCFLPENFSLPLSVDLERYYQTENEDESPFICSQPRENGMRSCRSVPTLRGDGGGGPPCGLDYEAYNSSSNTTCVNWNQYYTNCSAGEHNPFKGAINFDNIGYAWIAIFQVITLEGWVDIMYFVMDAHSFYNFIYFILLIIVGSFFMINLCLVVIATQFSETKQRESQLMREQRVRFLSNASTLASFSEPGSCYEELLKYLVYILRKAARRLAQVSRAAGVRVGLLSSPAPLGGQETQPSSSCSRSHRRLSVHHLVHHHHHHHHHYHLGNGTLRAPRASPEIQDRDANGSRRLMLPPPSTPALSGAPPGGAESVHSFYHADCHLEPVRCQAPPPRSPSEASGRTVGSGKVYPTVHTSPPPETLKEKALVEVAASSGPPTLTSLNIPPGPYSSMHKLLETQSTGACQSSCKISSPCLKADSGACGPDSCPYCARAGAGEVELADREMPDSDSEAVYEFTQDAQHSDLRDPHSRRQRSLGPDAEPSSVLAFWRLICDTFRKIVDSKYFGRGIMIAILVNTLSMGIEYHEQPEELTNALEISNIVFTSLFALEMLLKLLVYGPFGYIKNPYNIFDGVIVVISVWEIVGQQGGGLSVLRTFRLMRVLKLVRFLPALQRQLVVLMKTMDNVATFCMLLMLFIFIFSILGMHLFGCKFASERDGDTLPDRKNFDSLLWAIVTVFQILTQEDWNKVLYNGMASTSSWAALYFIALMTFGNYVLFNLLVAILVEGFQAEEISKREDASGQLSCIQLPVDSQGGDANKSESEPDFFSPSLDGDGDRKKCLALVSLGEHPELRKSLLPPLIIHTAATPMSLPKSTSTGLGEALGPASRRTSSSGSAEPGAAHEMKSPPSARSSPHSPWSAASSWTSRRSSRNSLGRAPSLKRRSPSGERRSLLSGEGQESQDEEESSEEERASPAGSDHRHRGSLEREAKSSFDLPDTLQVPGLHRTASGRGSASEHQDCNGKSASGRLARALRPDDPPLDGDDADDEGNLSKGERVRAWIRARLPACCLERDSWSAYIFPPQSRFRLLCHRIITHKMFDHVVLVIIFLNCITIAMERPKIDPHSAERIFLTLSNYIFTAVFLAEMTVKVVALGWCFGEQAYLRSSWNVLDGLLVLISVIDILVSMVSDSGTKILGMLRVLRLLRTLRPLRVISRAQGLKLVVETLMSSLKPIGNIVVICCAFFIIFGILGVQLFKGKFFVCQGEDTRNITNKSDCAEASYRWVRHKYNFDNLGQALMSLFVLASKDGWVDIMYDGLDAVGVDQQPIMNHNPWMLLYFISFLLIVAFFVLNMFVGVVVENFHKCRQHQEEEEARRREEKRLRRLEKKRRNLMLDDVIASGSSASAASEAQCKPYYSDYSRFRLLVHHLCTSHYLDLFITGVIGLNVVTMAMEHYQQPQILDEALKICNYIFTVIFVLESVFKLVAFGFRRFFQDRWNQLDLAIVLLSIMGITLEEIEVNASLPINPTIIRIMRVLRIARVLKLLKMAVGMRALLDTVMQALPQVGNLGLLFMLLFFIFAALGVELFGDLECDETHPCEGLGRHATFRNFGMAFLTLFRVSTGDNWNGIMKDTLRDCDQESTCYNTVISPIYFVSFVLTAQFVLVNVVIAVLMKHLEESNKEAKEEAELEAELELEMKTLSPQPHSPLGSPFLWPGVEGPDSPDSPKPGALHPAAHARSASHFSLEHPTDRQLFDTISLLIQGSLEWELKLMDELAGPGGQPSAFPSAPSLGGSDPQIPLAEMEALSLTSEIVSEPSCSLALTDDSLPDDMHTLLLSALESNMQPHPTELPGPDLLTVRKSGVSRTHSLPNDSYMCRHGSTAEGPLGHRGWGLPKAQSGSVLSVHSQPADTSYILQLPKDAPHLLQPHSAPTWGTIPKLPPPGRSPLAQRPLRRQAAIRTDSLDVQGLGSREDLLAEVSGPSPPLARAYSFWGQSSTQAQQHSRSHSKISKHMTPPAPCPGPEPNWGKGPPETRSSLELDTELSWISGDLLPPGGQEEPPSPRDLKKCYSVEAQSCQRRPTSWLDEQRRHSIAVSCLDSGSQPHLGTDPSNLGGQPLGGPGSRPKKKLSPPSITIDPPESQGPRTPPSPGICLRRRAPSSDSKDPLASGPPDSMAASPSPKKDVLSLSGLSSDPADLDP

| IC50 [1] [µM] | IC50 [2, 5] [µM] | IC50 [2, 6] [µM] | SMILES | reversal of allodynia [3] | selectivity for T-type over L-type channels [4] |
| --- | --- | --- | --- | --- | --- |
| 9.69 | 0.27 | 0.14 | O=C(CNC(c1ccccc1)c1ccccc1)N1CCN(C(c2ccc(F)cc2)c2ccc(F)cc2)CC1 [Compound 29, 2-(benzhydrylamino)-1-(4-(bis(4-fluorophenyl)methyl)piperazin-1-yl)ethanone] |  |  |
| 0.59 | 0.49 | 0.27 | O=C(COC(c1ccccc1)c1ccccc1)N1CCN(C(c2ccccc2)c2ccccc2)CC1 [Compound 30, 2-(benzhydryloxy)-1-(4-benzhydrylpiperazin-1-yl)ethanone] |  |  |
| 0.37 | 0.49 | 0.29 | O=C(CNC(c1ccccc1)c1ccccc1)N1CCN(C(c2ccccc2)c2ccccc2)C(CO)C1 (centres unmarked) [Compound 49, 2-benzhydrylamino-1-(4-benzhydryl-3-hydroxymethylpiperazin-1-yl)ethanone] | complete reversal of allodynia |  |
| 0.49 | 0.25 | 0.15 | COCC1CN(C(=O)CNC(c2ccccc2)c2ccccc2)CCN1C(c1ccccc1)c1ccccc1 (centres unmarked) [Compound 53, 2-benzhydrylamino-1-(4-benzhydryl-3-methoxymethylpiperazin-1-yl)ethanone] |  |  |

The next lines start with the compound.

| SMILES | IC50 [1] [µM] | IC50 [2, 5] [µM] | IC50 [2, 6] [µM] | reversal of allodynia [3] | selectivity for T-type over L-type channels [4] |
| --- | --- | --- | --- | --- | --- |
| O=C(COc1ccc(Cl)cc1Cl)N1CCN(C(c2ccccc2)c2ccccc2)CC1 [Compound 26, 1-(4-benzhydrylpiperazin-1-yl)-2-(2,4-dichlorophenoxy)ethanone] | 1.26 | 0.25 | 0.19 |  |  |
| O=C(COC(c1ccccc1)c1ccccc1)N1CCN(C(c2ccc(F)cc2)c2ccc(F)cc2)CC1 [Compound 46, 2-(benzhydryloxy)-1-(4-(bis(4-fluorophenyl)methyl)piperazin-1-yl)ethanone] | 0.35 | 0.92 | 0.43 |  |  |
| O=C(C[S+]([O-])C(c1ccccc1)c1ccccc1)N1CCN(C(c2ccc(F)cc2)c2ccc(F)cc2)CC1 (centres unmarked) [Compound 48, 2-(benzhydrylsulfinyl)-1-(4-(bis(4-fluorophenyl)methyl)piperazin-1-yl)ethanone] | 0.31 | 0.22 | 0.16 |  |  |
| COCC(=O)O[C@]1(CCN(C)CCCc2nc3ccccc3[nH]2)CCc2cc(F)ccc2[C@@H]1C(C)C [Mibefradil] |  |  |  |  | 10-30 fold |
